Assay results: patent US11370796B2, “Substituted pyrazoles as LRRK2 inhibitors” (OSCOTEC INC., priority 2017, dated 2022)
Read-outs that look alike come from different tables or passages of the source.

Molecular target: LRRK2 (leucine-rich repeat kinase 2) (Homo sapiens (Human), UniProt Q5S007)
Assay: Inhibitory effect on LRRK2 in vitro (LANCE kinase assay)
Type: biochemical
Method: The inhibitory effect of Compounds 1 to 62 on LRRK2 (leucine-rich repeat kinase 2) in vitro was measured. In the analysis of the results, IC50 values were calculated for a quantitative comparison of the in vitro activity.
After the compound was dissolved in 100% DMSO at 10 mM, it was serially diluted to the range of 1 μM to 10 μM using biochemical LRRK2 assay buffer (50 mM HEPES (4-(2-hydroxyethyl)-1-piperazineethanesulfonic acid) pH 7.5, 10 mM MgCl2, 1 mM EGTA (1,2-bis(o-aminophenoxy)ethane-N,N,N′,N′-tetraacetic acid), 2 mM DTT (dithiothreitol), and 0.01% TWEEN-20 (Aldrich)). Purified LRRK2 (CARNA BIOSCIENCES) was added to a black U-bottom 96-well microtiter plate containing 6 μl of the serially diluted compound, followed by incubation at room temperature for 30 minutes. For the kinase reaction, ATP and a substrate solution specific urea-polypeptide (ULIGHT™-poly TK, PerkinElimer) were added. The reaction was carried out at room temperature for 1 hour, and it was detected with an detection solution (brand name: LANCE™) containing EDTA. A LANCE detection solution containing europium-labeled antibody ([…] PT66) was added, followed by incubation at room temperature for 50 minutes, to terminate the kinase experiment. The phosphorylated substrate was detected by 665 nm emission measurement. IC50 values were calculated by a non-linear regression analysis using a Prism program (PRISM™ software) with reference to the absence of a kinase inhibitor.
As a comparative assay, a compound LRR2-IN-1, that known to be a reference compound for LRRK2 inhibitor, have also tested an inhibitory activity.

[1] = Table 1, class symbols, read-out: LRRK2 inhibition rate (IC50)
[2] = purified LRRK2, Table 6, read-out: IC50

Sequence of LRRK2 (leucine-rich repeat kinase 2) (Q5S007 whole entry): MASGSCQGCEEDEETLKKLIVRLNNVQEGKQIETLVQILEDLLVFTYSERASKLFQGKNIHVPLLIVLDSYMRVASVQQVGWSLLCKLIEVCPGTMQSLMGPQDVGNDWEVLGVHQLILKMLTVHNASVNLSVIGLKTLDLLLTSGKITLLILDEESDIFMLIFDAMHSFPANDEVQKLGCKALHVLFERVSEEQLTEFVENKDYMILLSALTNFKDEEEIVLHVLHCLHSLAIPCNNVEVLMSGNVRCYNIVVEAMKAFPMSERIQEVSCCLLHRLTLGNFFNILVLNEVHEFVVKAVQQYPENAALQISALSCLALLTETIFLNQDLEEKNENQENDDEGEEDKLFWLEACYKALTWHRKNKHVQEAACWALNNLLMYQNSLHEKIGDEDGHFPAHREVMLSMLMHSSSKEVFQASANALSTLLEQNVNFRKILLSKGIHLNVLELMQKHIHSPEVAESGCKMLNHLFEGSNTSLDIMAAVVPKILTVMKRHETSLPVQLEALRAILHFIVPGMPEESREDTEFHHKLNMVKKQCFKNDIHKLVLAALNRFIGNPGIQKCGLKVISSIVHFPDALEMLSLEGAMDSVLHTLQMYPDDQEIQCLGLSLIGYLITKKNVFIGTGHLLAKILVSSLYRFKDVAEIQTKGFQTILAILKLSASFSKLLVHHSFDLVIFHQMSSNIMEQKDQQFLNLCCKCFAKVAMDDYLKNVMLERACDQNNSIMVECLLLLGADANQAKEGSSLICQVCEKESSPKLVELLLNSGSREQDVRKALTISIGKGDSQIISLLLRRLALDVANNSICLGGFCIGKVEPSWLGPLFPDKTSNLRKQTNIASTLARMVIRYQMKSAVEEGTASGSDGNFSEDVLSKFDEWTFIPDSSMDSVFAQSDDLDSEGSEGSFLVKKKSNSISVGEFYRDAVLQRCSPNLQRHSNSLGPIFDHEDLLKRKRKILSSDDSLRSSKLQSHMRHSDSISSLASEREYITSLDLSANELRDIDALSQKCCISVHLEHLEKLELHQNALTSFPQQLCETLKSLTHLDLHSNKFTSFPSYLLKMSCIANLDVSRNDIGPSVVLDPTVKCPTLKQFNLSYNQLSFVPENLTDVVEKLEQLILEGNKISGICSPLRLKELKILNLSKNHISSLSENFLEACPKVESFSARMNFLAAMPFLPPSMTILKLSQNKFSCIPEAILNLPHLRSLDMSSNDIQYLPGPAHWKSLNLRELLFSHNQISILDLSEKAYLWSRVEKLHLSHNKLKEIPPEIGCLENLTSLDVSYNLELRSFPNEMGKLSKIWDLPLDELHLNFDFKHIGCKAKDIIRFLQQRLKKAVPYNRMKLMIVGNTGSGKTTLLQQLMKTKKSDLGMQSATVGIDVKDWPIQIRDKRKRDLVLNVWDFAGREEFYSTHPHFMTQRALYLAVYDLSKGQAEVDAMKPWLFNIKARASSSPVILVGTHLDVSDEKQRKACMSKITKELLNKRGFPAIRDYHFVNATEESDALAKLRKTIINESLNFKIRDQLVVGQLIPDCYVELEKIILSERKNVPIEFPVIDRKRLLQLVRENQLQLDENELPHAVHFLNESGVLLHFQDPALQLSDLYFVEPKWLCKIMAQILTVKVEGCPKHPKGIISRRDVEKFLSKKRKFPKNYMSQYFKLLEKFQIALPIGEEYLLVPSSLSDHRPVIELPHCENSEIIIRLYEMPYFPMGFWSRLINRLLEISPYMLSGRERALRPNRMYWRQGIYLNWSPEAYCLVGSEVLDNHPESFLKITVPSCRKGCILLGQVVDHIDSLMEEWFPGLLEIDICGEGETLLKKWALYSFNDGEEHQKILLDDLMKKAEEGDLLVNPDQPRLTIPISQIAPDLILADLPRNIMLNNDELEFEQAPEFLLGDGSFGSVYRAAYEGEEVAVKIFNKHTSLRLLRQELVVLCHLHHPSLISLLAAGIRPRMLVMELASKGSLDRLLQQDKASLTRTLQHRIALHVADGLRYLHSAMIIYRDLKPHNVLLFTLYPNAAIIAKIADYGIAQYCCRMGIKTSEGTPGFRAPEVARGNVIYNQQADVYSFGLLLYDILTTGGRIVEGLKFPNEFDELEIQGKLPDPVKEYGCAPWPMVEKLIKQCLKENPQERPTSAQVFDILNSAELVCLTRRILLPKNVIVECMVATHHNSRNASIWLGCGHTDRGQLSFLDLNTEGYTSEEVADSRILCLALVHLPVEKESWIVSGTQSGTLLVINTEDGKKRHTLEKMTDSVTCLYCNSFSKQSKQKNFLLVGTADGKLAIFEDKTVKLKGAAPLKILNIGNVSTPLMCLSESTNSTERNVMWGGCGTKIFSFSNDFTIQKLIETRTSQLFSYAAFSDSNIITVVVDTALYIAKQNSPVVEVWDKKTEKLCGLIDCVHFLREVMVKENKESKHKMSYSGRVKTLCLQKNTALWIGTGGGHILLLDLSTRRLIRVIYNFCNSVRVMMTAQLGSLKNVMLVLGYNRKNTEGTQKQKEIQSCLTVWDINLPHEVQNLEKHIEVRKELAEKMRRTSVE

Row | IC50 [1] [nM] | IC50 [2] [nM] | Compound
1 | < 10 | 2.5 | CCn1cc(Cl)c2cnc(Nc3cn(C4CCN(C(=O)N5CCN(C)CC5)CC4)nc3Cl)nc21 [Compound 32, (4-(3-chloro-4-(5-chloro-7-ethyl-7H-pyrrolo[2,3-d]pyrimidin-2-ylamino)-1H-pyrazol-1-yl)piperidin-1-yl)(4-methylpiperazin-1-yl)methanone]
2 | 10 to 100 | – | CCn1nc(Cl)c2cnc(Nc3cn(C4CCN(C(=O)C(F)(F)F)CC4)nc3Cl)nc21 [Compound 48, 1-(4-(3-chloro-4-(3-chloro-1-ethyl-1H-pyrazolo[3,4-d]pyrimidin-6-ylamino)-1H-pyrazol-1-yl)piperidin-1-yl)-2,2,2-trifluoroethanone]
3 | < 10 | 3.94 | CCn1nc(Cl)c2cnc(Nc3cn(C4CCN(S(=O)(=O)CC)CC4)nc3Cl)nc21 [Compound 59, 3-chloro-N-(3-chloro-1-(1-(ethylsulfonyl)piperidin-4-yl)-1H-pyrazol-4-yl)-1-ethyl-1H-pyrazolo[3,4-d]pyrimidin-6-amine]
4 | < 10 | – | CCn1nc(Cl)c2cnc(Nc3cn(C4CCN(C(=O)C(C)(C)C)CC4)nc3Cl)nc21 [Compound 53, 1-(4-(3-chloro-4-(3-chloro-1-ethyl-1H-pyrazolo[3,4-d]pyrimidin-6-ylamino)-1H-pyrazol-1-yl)piperidin-1-yl)-2,2-dimethylpropane-1-one]
5 | < 10 | 5.92 | CCn1nc(Cl)c2cnc(Nc3cn(C4CCN(C(C)=O)CC4)nc3Cl)nc21 [Compound 58, 1-(4-(3-chloro-4-(3-chloro-1-ethyl-1H-pyrazolo[3,4-d]pyrimidin-6-ylamino)-1H-pyrazol-1-yl)piperidin-1-yl)ethanone]

The next lines start with the compound.

Row | Compound | IC50 [1] [nM] | IC50 [2] [nM]
6 | CCn1cc(Cl)c2cnc(Nc3cn(C4CC4)nc3Cl)nc21 [Compound 14, 5-chloro-N-(3-chloro-1-cyclopropyl-1H-pyrazol-4-yl)-7-ethyl-7H-pyrrolo[2,3-d]pyrimidin-2-amine] | 10 to 100 | –
7 | CCn1cc(Cl)c2cnc(Nc3cn(-c4ccc(F)cc4)nc3Cl)nc21 [Compound 21, 5-chloro-N-(3-chloro-1-(4-fluorophenyl)-1H-pyrazol-4-yl)-7-ethyl-7H-pyrrolo[2,3-d]pyrimidin-2-amine] | 100 to 1000 | –
8 | CCn1cc(Cl)c2cnc(Nc3cn(C4CCOCC4)nc3Cl)nc21 [Compound 18, 5-chloro-N-(3-chloro-1-(tetrahydro-2H-pyran-4-yl)-1H-pyrazol-4-yl)-7-ethyl-7H-pyrrolo[2,3-d]pyrimidin-2-amine] | 10 to 100 | –
9 | Cn1cc(Cl)c2cnc(Nc3cn(C4CCOCC4)nc3C(F)(F)F)nc21 [Compound 4, 5-chloro-7-methyl-N-(1-(tetrahydro-2H-pyran-4-yl)-3-(trifluoromethyl)-1H-pyrazol-4-yl)-7H-pyrrolo[2,3-d]pyrimidin-2-amine] | 100 to 1000 | –
